{"source": "a melting point compilation (Tetko et al.; mined from patent text by program, amines drawn as free bases though some values may be those of a salt)"}
{"units": {"melting point": "°C"}}
{"compound": "COC(=O)c1[nH]c2c(OCc3ccccc3)cc([N+](=O)[O-])c(CCCl)c2c1C(=O)OC", "melting point": "122 to 128"}
{"compound": "OCc1cnoc1-c1ccc(F)cc1", "melting point": "41 to 42"}
{"compound": "NC(=O)CCCCCc1cccc2cncn12", "melting point": "131 to 132"}
{"compound": "CC(=O)NC[C@H]1CN(c2ccc(-n3cc(-c4ccc(Cl)cc4)cn3)c(F)c2)C(=O)O1", "melting point": 238}
{"compound": "CC(=O)Nc1cccc2c1C(=O)c1c-2n[nH]c1-c1ccc(N2CCOCC2)cc1", "melting point": "> 300"}
{"compound": "CCCOc1ccc(S(=O)(=O)N2CCN(C)CC2)cc1-c1nc2cc3ncn(Cc4cccc(Cl)c4)c3cc2c(=O)[nH]1", "melting point": "198 to 200"}
{"compound": "CCOCc1nc2c(N)nc3ccccc3c2n1N(C)C", "melting point": "213 to 215"}
{"compound": "CC1(C)OC(=O)Nc2cc(-c3cccc(Cl)c3)sc21", "melting point": "123 to 125"}
{"compound": "NS(=O)(=O)c1ccccc1OC(F)(F)C(F)Cl", "note": "(configuration not stated)", "melting point": "113 to 116"}
{"compound": "CC(C)c1cc(C(C)C)c(S(=O)(=O)n2ccc3ccccc32)c(C(C)C)c1", "melting point": "131 to 133"}
{"compound": "O=C1NC(=O)c2c1c(-c1ccccc1Cl)cc1sc3ccc(O)cc3c21", "melting point": "311 to 313"}
{"compound": "Cc1nc(C(=O)Nc2cccc(Cl)c2Cl)c(C)n1-c1ccccc1", "melting point": "127 to 129"}
{"compound": "Cc1cc(C)c(Oc2cc(Nc3ccc(C#N)cc3)c([N+](=O)[O-])cc2[N+](=O)[O-])c(C)c1", "melting point": 132}
{"compound": "O=C(Cc1ccccc1)NC1CN(C(C(=O)OCc2ccccc2)c2ccccc2)C1=O", "note": "(configuration not stated)", "melting point": "96 to 98"}
{"compound": "CC(C)=CCC1(C(F)(F)F)C(=O)NC(=O)NC1=O", "melting point": "150 to 153"}
{"compound": "CCOC(=O)c1cc(O)c2nc(C3CC3)n(C)c2c1", "melting point": "201 to 202"}
{"compound": "CCOc1ccc([N+](=O)[O-])cc1OC", "melting point": "88 to 90"}
{"compound": "COc1cc(CO)c(OC)cc1Cl", "melting point": "89 to 90"}
{"compound": "NP(N)(=O)c1ccccc1", "melting point": "187 to 191"}
{"compound": "COc1cc2cc3c4c(cccc4c2cc1OC)C(=O)OC3=O", "melting point": "> 324"}
{"compound": "NS(=O)(=O)c1ccc(-c2ccccc2-c2ccc(C(F)(F)F)cc2)cc1", "melting point": 188}
{"compound": "Cc1ccc(-c2c([N+](=O)[O-])oc3ccccc23)cc1C", "melting point": "125 to 133"}
{"compound": "COCCn1nc2c3c(c(NCCNCCO)ccc31)C(=O)c1c(O)ccc(O)c1-2", "melting point": "174 to 178"}
{"compound": "CC(=O)Nc1ccn(C2OC(COC(C)=O)C(Br)C2OC(C)=O)c(=O)n1", "note": "(configuration not stated)", "melting point": "179 to 180"}
{"compound": "Cc1c(Cl)cc(C(=O)O)c(Cl)c1[N+](=O)[O-]", "melting point": "210 to 218"}
{"compound": "O=C(CCCC12CCC(=O)N1C(=O)CC2)OCc1ccccc1", "melting point": "102 to 105"}
{"compound": "O=C(O)CCCNC(=O)COc1ccccc1", "melting point": "91 to 94"}
{"compound": "O=c1c(CCCc2ccoc2)cc2cccnc2n1-c1cccc([N+](=O)[O-])c1", "melting point": "185 to 186"}
{"compound": "CCC1CC2C3CCC4=CC(=O)CCC4C3CCC2(C)C1O", "note": "(configuration not stated)", "melting point": "150 to 152"}
{"compound": "OCC1CC(O)C(n2c(Br)nc3cc(Cl)c(Cl)cc32)C1", "note": "(configuration not stated)", "melting point": "218 to 220"}
{"compound": "CCOC(=O)c1cc(N=c2sc(=S)n3n2CCCC3)c(F)cc1F", "melting point": "91 to 92"}
{"compound": "O=C(O)c1ccccc1Oc1ccccc1O", "melting point": "147 to 149"}
{"compound": "CN1CC(CCCl)Oc2ncc(-c3ccccc3)cc2C1=S", "note": "(configuration not stated)", "melting point": "156 to 158"}
{"compound": "Cc1cnc2c(=O)[nH]c3ccccc3n12", "melting point": "> 300"}
{"compound": "NC(=O)c1ccc([N+](=O)[O-])cc1[N+](=O)[O-]", "melting point": "202 to 204"}
{"compound": "Nc1ccc2c(c1)NC(=O)c1cscc1N2", "melting point": "212 to 215"}
{"compound": "COc1cc(-c2c(Cl)c(CCl)nc3sc4c(c23)CCN(Cc2ccccc2)C4)ccc1OC(C)C", "melting point": "173 to 174"}
{"compound": "CC(C)Cn1c(=O)n(C)c(=O)c2c(Sc3cccs3)c(Cn3cnc4ccccc43)sc21", "melting point": 198}
{"compound": "COc1cc(CCCC2SC(=O)NC2=O)ccc1OCc1nc(-c2ccco2)oc1C", "note": "(configuration not stated)", "melting point": "109 to 110"}
{"compound": "C[C@@H](NC(=O)c1ccc(-c2ccc(Cl)cc2)s1)[C@](O)(Cn1cncn1)c1ccc(F)cc1F", "melting point": "169 to 170"}
{"compound": "Cc1nc2cccc3n(CCCCNS(C)(=O)=O)c(=O)c1n23", "melting point": "166 to 167"}
{"compound": "COC(=O)C=Cc1ccc(-c2ccccc2)cc1", "melting point": "144 to 147"}
{"compound": "CON=C(C#N)c1ccccc1COc1ccc(Cl)cc1", "melting point": "69 to 71"}
{"compound": "O=Cc1ccc(-c2cn(S(=O)(=O)c3ccccc3)c3ccccc23)o1", "melting point": 140}
{"compound": "CN1CCCN(C2=Nc3cc(Cl)ccc3Nc3ccccc32)CC1", "melting point": "143 to 145"}
{"compound": "COc1ccc(CCc2oc3ccc(Br)cc3c2CO)cc1", "melting point": "65 to 75"}
{"compound": "Oc1ccc2c(c1)Cc1c-2cc2ccc(O)cc2c1C=C(F)F", "melting point": "211 to 212"}
{"compound": "NCCCc1ccc2c(n1)NCCC2", "melting point": "66 to 68.5"}
{"compound": "Cc1cccc(-c2nc(N)sc2-c2ccc(F)c(-c3ccc(S(C)(=O)=O)cc3)c2)n1", "melting point": "202 to 204"}
{"compound": "N#Cc1c(NC(=O)CO)cccc1N1CCOCC1", "melting point": "123 to 126"}
{"compound": "CCOC(=O)C1=C(C)NC(C)=C(C(=O)OCC)C1c1ccccc1/C=C(\\CC)C(=O)OCC", "melting point": "92 to 94"}
{"compound": "COc1ccccc1N1CCN(CCCCOc2ccc(-c3cn4ccsc4n3)cc2)CC1", "melting point": "128 to 130"}
{"compound": "O=C(CCN1CCCC1)Nc1ccc2c(=O)c3ccc(NC(=O)CCN4CCCC4)cc3[nH]c2c1", "melting point": "> 320"}
{"compound": "CO[C@@H](C)[C@](C)(OC)c1cc(F)cc(OCc2ccc3ccccc3c2)c1", "note": "(racemic)", "melting point": "58 to 59"}
{"compound": "O=c1[nH]c2ccccc2n1CCCN1CCNCC1", "melting point": 158}
{"compound": "CCCCn1c(=O)n(CCN2CCC(C(=O)c3ccc(F)cc3)CC2)c(=O)c2cscc21", "melting point": "126 to 127"}
{"compound": "COc1ccc(Nc2ccc(OCc3ccccc3)cc2)c(C(=O)O)c1", "melting point": "167 to 168"}
{"compound": "C=C(C)OC(=O)N1C(=O)[C@H](C)Nc2nc(Cl)ccc21", "melting point": "86 to 87"}
{"compound": "CC(CC(=O)NO)c1cccc(Nc2ccccc2-c2n[nH]c(=S)o2)c1Cl", "note": "(configuration not stated)", "melting point": "205 to 207"}
{"compound": "Cc1c(SCCCSCc2ccncc2)ccnc1CNc1cnc2ccccc2c1", "melting point": "116 to 119"}
{"compound": "Cc1[nH]c(C)c(-c2ccc(Oc3ccc(OC(F)(F)F)cc3)cc2)c(=O)c1Br", "melting point": "284 to 286"}
{"compound": "COc1ccc(Cn2nc(CO)c3ccccc32)cc1", "melting point": "95 to 97"}
{"compound": "CC(=O)N[C@@H]1CCN(S(=O)(=O)c2ccc(Cl)c(COc3cccc4c(-n5ccnc5)cc(C)nc34)c2Cl)C1", "melting point": 246}
{"compound": "O=C1CCCc2cc(F)cc(F)c21", "melting point": "57 to 58"}
{"compound": "O=Cc1c2ccccc2cc2c(C=O)c3ccccc3cc12", "melting point": "247 to 250"}
{"compound": "CC1=Nc2ccccc2N(Cc2ccccc2)C(=O)C1C/C=C/c1ccccc1", "note": "(configuration not stated)", "melting point": "152 to 154"}
{"compound": "COc1ccccc1OCC1(COc2ccccc2OC)NC(C(=O)O)CS1", "note": "(configuration not stated)", "melting point": "160 to 162"}
{"compound": "CCCc1[nH]c2cc(C(N)=O)ccc2c1C(=O)C1CCCCC1", "melting point": "245 to 247"}
{"compound": "COc1cc(COc2nn(C)cc2C(=O)N(C)OC)ccc1OCc1nc(-c2ccccc2)oc1C", "melting point": "138 to 139"}
{"compound": "COC(=O)NC1=NC(c2ccc(I)cc2)CN1", "note": "(configuration not stated)", "melting point": "229 to 230"}
{"compound": "O=C1Nc2ccc(Cl)cc2C2(c3ccccc3)OCCCN12", "note": "(configuration not stated)", "melting point": "202 to 204"}
{"compound": "Cc1ccc(NC(=O)c2ccc(Br)cc2)cc1N1CCN(C)CC1", "melting point": "208 to 209"}
{"compound": "CNc1nc(-c2ccc(OCc3ccc(Cl)cc3)cc2)cs1", "melting point": "158 to 159"}
{"compound": "Cc1cc(OCC(F)(F)F)c([N+](=O)[O-])c(OCC(F)(F)F)n1", "melting point": "72.8 to 73.2"}
{"compound": "N#Cc1cnn2c(C(F)(F)F)cc(-c3ccc(Cl)c(Cl)c3)nc12", "melting point": 206}
{"compound": "COc1cc(OC)c2c(=O)[nH]c(-c3cc(C)c(OCCN4C(=O)CN(C(C)C)C4=O)c(C)c3)nc2c1", "melting point": "219 to 221"}
{"compound": "O=C(O)c1ccc(-c2cc([N+](=O)[O-])ccc2F)cc1", "melting point": "> 280"}
{"compound": "[N-]=[N+]=NCc1ccc(C(=O)c2ccc(Cl)cc2)c(Cl)c1", "melting point": "33 to 33.5"}
{"compound": "COC(=O)COc1ccc(CC(C)NCC(O)c2cc3ccccc3o2)cc1C", "note": "(configuration not stated)", "melting point": "115 to 130"}
{"compound": "CCCCCCCCOc1cc(OC)ccc1C=O", "melting point": "37 to 39"}
{"compound": "CC1(C)C(=O)Nc2cc(C(=O)Nc3ccc(N)cc3)ccc21", "melting point": "216 to 218"}
{"compound": "O=C1O[C@@H](CO)CN1c1ccc2ncccc2c1", "melting point": 165}
{"compound": "CC(CN(C(C)C)C(C)C)N1C(=O)C(=O)c2ccccc21", "note": "(configuration not stated)", "melting point": "70 to 71"}
{"compound": "O=C(O)c1cccnc1N1CCN(CCOC2c3ccccc3CSc3ccccc32)CC1", "note": "(configuration not stated)", "melting point": "217 to 218"}
{"compound": "Cn1c(=O)c(-c2ccc(Cl)cc2Cl)cc2c3cc(-c4nnc(N)s4)ccc3n(C)c21", "melting point": "321 to 323"}
{"compound": "Cc1ccc([N+](=O)[O-])cc1C(=O)N(C)C", "melting point": "98 to 99"}
{"compound": "CCn1ncc2c3onc(-c4ccc(OC)cc4)c3cnc21", "melting point": "156 to 157"}
{"compound": "CCOC(=O)C(CC(F)(F)CC(C)C1CCC2C3CC=C4CC(OC5CCCCO5)CCC4(C)C3CCC12C)C(=O)OCC", "note": "(configuration not stated)", "melting point": "79 to 80"}
{"compound": "CC(C)(C)NC(=O)c1ccc2[nH]ccc2c1", "melting point": 176}
{"compound": "O=C(O)CCn1c(=O)c(=O)[nH]c2cc(C(F)(F)F)c(-n3cccc3)cc21", "melting point": "190 to 192"}
{"compound": "CC(C)c1nc(CN=[N+]=[N-])n(Cc2cccnc2)c1Sc1cc(Cl)cc(Cl)c1", "melting point": "99 to 103"}
{"compound": "Cc1ccc(F)c2c1N(CC(=O)Nc1ccccc1F)C(=O)C21COc2cc3c(cc21)CCO3", "note": "(configuration not stated)", "melting point": "250 to 255"}
{"compound": "CS(=O)(=O)N(c1ccc(C(=O)NC2CCN(C3CCCCC3)C2)cc1)S(C)(=O)=O", "note": "(configuration not stated)", "melting point": "176 to 178"}
{"compound": "CCN1C(=O)C(C)(C)C(=O)N(C)c2cc(CN(CCn3ccc4oc(C)cc4c3=O)Cc3ncoc3C)ccc21", "melting point": "129 to 130"}
{"compound": "O=C(NCc1ccc(Cl)cc1)c1cnc2c(O)cccc2c1O", "melting point": "319 to 320"}
{"compound": "CCOC(=O)c1cc2nc(C)nc-2[nH]c1C(=O)OCC", "melting point": "164 to 165"}
{"compound": "COC(=O)C1(Cl)SC=CC1=O", "note": "(configuration not stated)", "melting point": "70 to 71"}
{"compound": "CC(=O)NCCCc1nc2cc(C3=NNC(=O)CC3C)ccc2[nH]1", "note": "(configuration not stated)", "melting point": "244 to 246"}
{"compound": "CCC12CCC3C4CCC(=O)C=C4CCC3C1CCC2O", "note": "(configuration not stated)", "melting point": "147 to 149"}
{"compound": "COc1cc(Nc2nc3cccc(-c4ccn[nH]4)c3o2)cc(OC)c1OC", "melting point": "185 to 189"}
{"compound": "CCCCCc1c(/C=C/C(=O)O)sc2cc(OC)ccc12", "melting point": "209 to 210"}
{"compound": "CCN(CC)CCCCNc1ncc2c(n1)N(CC)C(=O)N(c1cc(OC)cc(OC)c1)C2", "melting point": "83 to 85"}
